Experimental data published in patent US7968518B2, “Use of modified cyclosporins for the treatment of HCV disorders” (Novartis AG, priority 2003, dated 2011).

Columns and labels:
[1] = tested on: HCV subgenomic replicon in MH-14 cells; assay: Immunoblot analysis of HCV NS5A and NS5B proteins in MH-14 HCV replicon cells; assay type: cell-based, Hepatitis C virus (HCV); details: 7 days
Experimental: (§1) Cell culture: Huh-7 and MH-14 cells, HCV replicon cells, are cultured in Dulbecco's modified Eagle's medium (DMEM) with 10% fetal bovine serum (FBS). PH5CH8 cells are cultured in a 1:1 mixture of DMEM and F12 medium supplemented with 100 ng/ml of epidermal growth factor, 10 μu/ml of insulin, 0.36 μg/ml of hydrocortisone, 5 μg/ml of transferrin, 5 μg/ml of linoleic acid, 20 ng/ml of selenium, 4 μg/ml of glucagon, 10 ng/ml of prolactin, 10 μg/ml of gentamicin, 200 μg/ml of kanamycin, and 2% FBS.
Immunoblot analysis: Immunoblot analysis is performed as described by K. Watashi et al., Virology 2001, 286, 391-402. The primary antibodies used in this experiment are anti-NS5A, anti-NS5B, and anti-β-actin (Sigma) antibodies.
The effect of various cyclosporins of the invention on the replication of the HCV genome using MH-14 cells, in which the HCV subgenomic replicon as shown in FIG. 1A is autonomously replicated.

[2] = tested on: HCV in PH5CH8 cells (non-neoplastic hepatocyte cell line); assay: In vitro HCV infection experiment in PH5CH8 cells, real time RT-PCR; assay type: cell-based, Hepatitis C virus (HCV); details: PH5CH8 cells treated with HCV-positive plasma, continuous treatment; untreated cells about 10-fold increase
Experimental: as §1
(§2) The forward and reverse primers used in this experiment are 5′-[…]-3′ and 5′-[…]-3′, respectively. The fluorogenic probe is 5′-[…]-3′. As an internal control, ribosomal RNA is also quantified using TaqMan Ribosomal RNA Control Reagents (Applied Biosystems).

[3] = tested on: HCV subgenomic replicon in MH-14 cells; assay: Northern blot analysis of replicon RNA in MH-14 cells; assay type: cell-based, Hepatitis C virus (HCV); details: 1 μg/ml, 7 days
Experimental: as §1
Northern Blot Analysis: Nothern blot analysis is performed as described by H. Kishine et al., Biochem. Biophys. Res. Commun., 2002, 47, 119-125. The probe complementary to the NS5B sequence used in this experiment is described by H. Kishine, supra.
(§3) Replicon RNA is analyzed in MH-14 cells treated with or without a cyclosporin of the invention or IFNα for 7 days by northern blot analysis.

[4] = tested on: HCV subgenomic replicon in MH-14 cells; details: 7th day of treatment
Experimental: as §1, §2, §3

In the case of IFNα, the “amount of HCV NS5A and NS5B proteins by immunoblot analysis” value ([1]; 100 U/ml, positive control) is reported as “undetectable” and the “increase of HCV RNA genome titer, 5th day vs 1st day post-inoculation” value [2] is reported as “significant increase of the HCV RNA genome titer at these time points was not observed”.

For [MeIle]^4-Ciclosporin, the “amount of HCV NS5A and NS5B proteins by immunoblot analysis” value ([1]; 1 μg/ml) was “undetectable”, the “amount of replicon RNA by northern blot” value [3] was “undetectable” and the “increase of HCV RNA genome titer, 5th day vs 1st day post-inoculation” value [2] was “significant increase of the HCV RNA genome titer at these time points was not observed”. The “level of HCV RNA relative to the original” value [4] was “about 1/400”.
